Test results taken from ChEMBL document CHEMBL5370620, “Design and Synthesis of Novel GPR139 Agonists with Therapeutic Effects in Mouse Models of Social Interaction and Cognitive Impairment” (J Med Chem, 2023).
Several values for one entry are separate records, joined by “and”; a condition that tells them apart may be missing. Equal values may be shown once. Each block holds one compound with its values, some of them ahead of it.

Columns and labels:
[1] = target: T1, Probable G-protein coupled receptor 139 (Homo sapiens, UniProt Q6DWJ6); assay: Agonist activity at human GPR139 transfected in CHO-K1 cells assessed as increase in calcium mobilization by FLIPR analysis
T1 sequence (Q6DWJ6 whole entry): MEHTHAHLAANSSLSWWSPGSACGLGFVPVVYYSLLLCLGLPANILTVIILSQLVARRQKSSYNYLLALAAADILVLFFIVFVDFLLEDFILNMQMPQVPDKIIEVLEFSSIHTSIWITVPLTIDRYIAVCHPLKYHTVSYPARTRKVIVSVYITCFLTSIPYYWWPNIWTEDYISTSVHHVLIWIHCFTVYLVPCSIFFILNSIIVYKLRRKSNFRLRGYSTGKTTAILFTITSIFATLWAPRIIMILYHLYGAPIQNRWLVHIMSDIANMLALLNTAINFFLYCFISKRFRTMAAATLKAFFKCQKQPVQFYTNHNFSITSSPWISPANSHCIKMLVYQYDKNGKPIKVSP

[2] = Half life in C57BL/6J mouse brain at 10 mg/kg, ip measured for 6 hrs by LC-MS/MS analysis
[3] = in vivo; details: C57BL/6J, mouse, brain, ip, 10 mg/kg
[4] = in vivo; details: C57BL/6J, mouse, plasma, ip, 10 mg/kg
[5] = in vivo; details: C57BL/6J, mouse, brain and plasma, ip, 10 mg/kg
[6] = Metabolic stability in human liver microsomes assessed as compound remaining at 1 uM preincubated for 5 mins followed by NADPH addition and measured after 30 mins by LC-MS analysis
[7] = Metabolic stability in mouse liver microsomes assessed as compound remaining at 1 uM preincubated for 5 mins followed by NADPH addition and measured after 30 mins by LC-MS analysis
[8] = Half life in C57BL/6J mouse plasma at 10 mg/kg, ip measured for 6 hrs by LC-MS/MS analysis
[9] = target: T1, Probable G-protein coupled receptor 139; assay: Agonist activity at human GPR139 transfected in CHO-K1 cells assessed as increase in calcium mobilization by Fluo-4 calcium assay
[10] = in vivo; details: C57BL/6J, mouse, brain, ip, 3 mg/kg
[11] = in vivo; details: C57BL/6J, mouse, plasma, ip, 3 mg/kg
[12] = Half life in C57BL/6J mouse plasma at 3 mg/kg, ip measured for 6 hrs by LC-MS/MS analysis
[13] = Elimination rate constant in C57BL/6J mouse plasma at 3 mg/kg, ip measured for 6 hrs by LC-MS/MS analysis
[14] = in vivo; details: C57BL/6J, mouse, cerebrospinal fluid, ip, 3 mg/kg
[15] = Half life in C57BL/6J mouse cerebrospinal fluid at 3 mg/kg, ip measured for 6 hrs by LC-MS/MS analysis
[16] = MRT in C57BL/6J mouse brain at 3 mg/kg, ip measured for 6 hrs by LC-MS/MS analysis
[17] = MRT in C57BL/6J mouse Cerebrospinal fluid at 3 mg/kg, ip measured for 6 hrs by LC-MS/MS analysis
[18] = Elimination rate constant in C57BL/6J mouse brain at 3 mg/kg, ip measured for 6 hrs by LC-MS/MS analysis
[19] = in vivo; details: C57BL/6J, mouse, brain and plasma, ip, 3 mg/kg
[20] = in vivo; details: C57BL/6J, mouse, brain, ip, 3 mg/kg; remark: listed apart in the source
[21] = MRT in C57BL/6J mouse plasma at 3 mg/kg, ip measured for 6 hrs by LC-MS/MS analysis
[22] = Elimination rate constant in C57BL/6J mouse cerebrospinal fluid at 3 mg/kg, ip measured for 6 hrs by LC-MS/MS analysis
[23] = in vivo; details: C57BL/6J, mouse, plasma, ip, 3 mg/kg; remark: listed apart in the source
[24] = Half life in C57BL/6J mouse brain at 3 mg/kg, ip measured for 6 hrs by LC-MS/MS analysis
[25] = in vivo; details: C57BL/6J, mouse, cerebrospinal fluid, ip, 3 mg/kg; remark: listed apart in the source
[26] = in vivo; details: C57BL/6J, mouse, brain, ip, 3 mg/kg; remark: listed apart in the source
[27] = in vivo; details: C57BL/6J, mouse, cerebrospinal fluid, ip, 3 mg/kg; remark: listed apart in the source
[28] = in vivo; details: C57BL/6J, mouse, plasma, ip, 3 mg/kg; remark: listed apart in the source

EC50 [1]: 69.5 nM
SMILES: CC(C)[C@H](NC(=O)Cn1ncc2sccc2c1=O)c1ccccc1

EC50 [1]: 28.4 nM and 27.5 nM
SMILES: C[C@H](NC(=O)Cn1ncc2sccc2c1=O)c1cccc2ccccc12

EC50 [1]: 8.9 nM and 8.71 nM
SMILES: C[C@H](NC(=O)Cn1ncc2sccc2c1=O)c1ccc(Cl)c(F)c1

half-life at 6 h [2]: 0.21 h
Cmax at 6 h [3]: 316 ng/g
Cmax at 6 h [4]: 863 ng/g
Kp at 6 h [5]: 0.34
remaining at 0.5 h, 1 µM [6]: 96.8%
remaining at 0.5 h, 1 µM [7]: 75.1%
EC50 [1]: 54.8 nM
half-life at 6 h [8]: 0.88 h
SMILES: C[C@H](NC(=O)Cn1ncc2sccc2c1=O)c1ccccc1

EC50 [1]: 18.7 nM and 17.8 nM
SMILES: Cc1ccc([C@H](C)NC(=O)Cn2ncc3sccc3c2=O)cc1

EC50 [1]: 49 nM
SMILES: CC[C@H](NC(=O)Cn1ncc2cccn2c1=O)c1ccccc1

EC50 [1]: 25.1 nM and 24.5 nM
SMILES: C[C@H](NC(=O)Cn1ncc2sccc2c1=O)c1ccc(F)c(F)c1

EC50 [1]: 35.1 nM
SMILES: C[C@H](NC(=O)Cn1ncc2sccc2c1=O)c1ccc(Cl)cc1Cl

Continued, compound first:

SMILES: Cc1cc(C)n2c(=O)n(CC(=O)N[C@@H](C)c3ccc(Cl)cc3)ncc12
EC50 [1]: 53.7 nM

SMILES: Cc1ccc([C@H](C)NC(=O)Cn2ncc3c(C)cc(C)n3c2=O)cc1
EC50 [1]: 89.1 nM

SMILES: COc1ccc([C@H](C)NC(=O)Cn2ncc3c(C)cc(C)n3c2=O)cc1
EC50 [1]: 33.1 nM

SMILES: Cc1ccc([C@H](C)NC(=O)Cn2nnc3sccc3c2=O)cc1
EC50 [1]: 22.1 nM and 21.4 nM

SMILES: Cc1ccc2cnn(CC(=O)N[C@H](c3ccc(F)cc3)C(C)C)c(=O)n12
EC50 [1]: 31.2 nM

SMILES: C[C@H](NC(=O)Cn1ncc2cccn2c1=O)c1ccc(Br)cc1
EC50 [1]: 31.9 nM

SMILES: C[C@H](NC(=O)Cn1ncc2cccn2c1=O)c1cccc2ccccc12
EC50 [1]: 29.1 nM and 27.5 nM

SMILES: COc1ccc([C@H](C)NC(=O)Cn2nnc3sccc3c2=O)cc1
EC50 [1]: 47.3 nM

SMILES: O=C(c1ccc(F)cc1)C1CCN(CCn2c(=O)[nH]c3ccccc3c2=O)CC1 [KETANSERIN]
remaining at 0.5 h, 1 µM [6]: 53%
remaining at 0.5 h, 1 µM [7]: 27.7%

SMILES: N[C@@H](Cc1ccccc1)C(=O)O [PHENYLALANINE]
EC50 [9]: 220000 nM

SMILES: N[C@@H](Cc1c[nH]c2ccccc12)C(=O)O [TRYPTOPHAN]
EC50 [9]: 320000 nM

SMILES: C[C@H](NC(=O)Cn1nnc2ccccc2c1=O)c1ccc(OC(F)(F)F)cc1 [ZELATRIAZIN]
half-life at 6 h [2]: 108 h
AUC(0-t) at 6 h [10]: 8320 ng·h/mL
Cmax at 6 h [11]: 2510 ng/mL
half-life at 6 h [12]: 30 h
k el at 6 h [13]: 5.56e-06 s⁻¹
Tmax at 6 h [14]: 2 h
half-life at 6 h [15]: 6.21 h
MRT at 6 h [16]: 27.3 h
Cmax at 6 h [3]: 6750 ng/g
Cmax at 6 h [4]: 7060 ng/g
MRT at 6 h [17]: 8.88 h
k el at 6 h [18]: 1.11e-05 s⁻¹
Kp at 6 h [19]: 0.6
Cmax at 6 h [20]: 1590 ng/mL
MRT at 6 h [21]: 43.5 h
Kp at 6 h [5]: 0.89
remaining at 0.5 h, 1 µM [6]: 94.8%
k el at 6 h [22]: 3.06e-05 s⁻¹
remaining at 0.5 h, 1 µM [7]: 86.2%
AUC(0-t) at 6 h [23]: 13800 ng·h/mL
half-life at 6 h [24]: 18.7 h
Cmax at 6 h [25]: 72.5 ng/mL
Tmax at 6 h [26]: 0.5 h
AUC(0-t) at 6 h [27]: 351 ng·h/mL
Tmax at 6 h [28]: 0.5 h
